Literature values, collected in US20110092488A1, “Quninoline Methanol Compounds for the Treatment and Prevention of Parasitic Infections” (priority 2005, published 2011).

Tested on: Plasmodium falciparum malaria
Conditions: P. falciparum malaria, South East Asia; WR030090: field trials; cited from earlier work

In the case of C=C[C@H]1C[N@@]2CC[C@H]1C[C@H]2[C@H](O)c1ccnc2ccc(OC)cc12 [quinine], the Cure rate is listed as 26-50%.
